Key:
[1] = target: GSPT1 (Homo sapiens (Human), UniProt P15170+Q96SW2); assay: GSPT1 reporter degradation assay (HEK293 hGSPT1 HiBiT-tagged cells); assay type: cell-based; conditions: 24 hour incubation
Method: HEK293_hGSPT1_HiBiT-tagged cells were generated using CRISPR-Cas12a technology. Briefly, ˜400,000 HEK293 cells were transiently co-transfected with precomplexed ribonuclear proteins (RNPs) consisting of 80 pmol of crRNA (IDT), 62 pmol of Cas12a protein (IDT), 3 μg of ssODN donor (IDT; AltR® modifications), 78 pmol of electroporation enhancer (IDT), and 200 ng of pMaxGFP (Lonza). The transfection was performed via nucleofection (Lonza, 4D-Nucleofector X-unit) using solution P3 and program CM-130 in a (20 μL) cuvette. Five days post-nucleofection, cells were single-cell-sorted for GFP+(transfected) cells by FACs in 96-well plates and clonally selected. Clones were screened and verified for the desired modification via targeted deep sequencing using gene-specific primers with partial Illumina adapter overhangs as previously described. In brief, clonal cell pellets were harvested, lysed, and used to generate gene-specific amplicons with partial Illumina adapters in PCR #1. Amplicons were indexed in PCR #2 and pooled with other targeted amplicons for other loci to create sequence diversity. Additionally, 10% PhiX sequencing control V3 (Illumina) was added to the pooled amplicon library prior to running the sample on a Miseq Sequencer System (Illumina) to generate paired 2×250 bp reads. Samples were demultiplexed using the index sequences, fastq files were generated, and NGS analysis was performed using CRIS.py. Final clones were authenticated using the PowerPlex fusion system (Promega) and tested negative for mycoplasma by the MycoAlert™Plus mycoplasma detection kit (Lonza).
Editing construct sequences and screening primers are outlined below (sequence from 5′ to 3′). hGSPT1Cas12acrRNA, CAGE635.GSPT1.g1: […] (SEQ ID NO: 4); CAGE635.g1.anti.ssODN: ttcctcacagtattgtgcagggtcatcaagaaaatgctta[…] CAGCCGCTCACgtcCttctctggaaccagtttcagaacttttccaattgcaatggtcttacctagaaatgaaattttaa (HiBiT tag and silent blocking modifications to prevent Cas12a recutting after integration are in upper case) (SEQ ID NO: 5); CAGE635.hGSPT1.DS.F: […] (SEQ ID NO: 6); CAGE635.hGSPT1.DS.R: GTGAA GTAGGCTTCTGCAGTC (SEQ ID NO: 7).
The GSPT1 degradation assay was carried out by harvesting the HEK 293T reporter cell lines and resuspending the cells in media formulated for reduced background fluorescence (FluoroBrite; Thermo Fisher). The respective cell lines were seeded at a density of 8,000 cells/well into white-opaque 384-well optical grade assay tissue culture plates (Greiner 781080-20). The cells were incubated overnight at 37° C. to allow for attachment to the assay plate. Dilutions of the compounds were prepared in DMSO from 10 mM compound stocks. Test compounds were added in a 10-point dilution series (typically 10 μM to […]) using a TECAN D300e Digital Dispenser with an upper limit of 0.5% final DMSO. Plates were centrifuged at 320×g for 2 minutes at room temperature, and subsequently incubated at 37° C.
After 24 hour incubation with the compounds, the plates were allowed to cool to room temperature for 10 minutes. 30 μL of HiBiT lytic buffer+1:50 HiBiT substrate Solution were added to each well. Plates were centrifuged at 320×g for 2 minutes at room temperature and then incubated with shaking at room temperature for 10 minutes covered with foil. Plates were read on a CLARIOstar microplate reader (BMG LabTech), measuring at 450 nm (donor emission) and 610 nm or 630 nm (acceptor emission). The DC50 values were determined by regression to best fit four-parameter logistic curves using GraphPad Prism.

[2] = system: IKZF2 (Helios); assay: IKZF2 reporter degradation assay (HEK 293T IKZF2-mNeonGreen reporter cell line); assay type: cell-based, human; conditions: 1 μM compound, 24 hour incubation, HEK 293T IKZF2-mNeonGreen reporter
Procedure, shortened: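 HEK 293T lines stably expressing each IKZF-GGGGS×3-mNeonGreen-P2A-mScarlet reporter, 4000 cells/well in FluoroBrite medium, treated with compound (≤0.5% DMSO) for 24 h at 37 °C. Imaging measured percent mNeonGreen-positive cells, with mScarlet used for segmentation; DC50 from four-parameter logistic fit.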

Chain of GSPT1 (P15170 whole entry): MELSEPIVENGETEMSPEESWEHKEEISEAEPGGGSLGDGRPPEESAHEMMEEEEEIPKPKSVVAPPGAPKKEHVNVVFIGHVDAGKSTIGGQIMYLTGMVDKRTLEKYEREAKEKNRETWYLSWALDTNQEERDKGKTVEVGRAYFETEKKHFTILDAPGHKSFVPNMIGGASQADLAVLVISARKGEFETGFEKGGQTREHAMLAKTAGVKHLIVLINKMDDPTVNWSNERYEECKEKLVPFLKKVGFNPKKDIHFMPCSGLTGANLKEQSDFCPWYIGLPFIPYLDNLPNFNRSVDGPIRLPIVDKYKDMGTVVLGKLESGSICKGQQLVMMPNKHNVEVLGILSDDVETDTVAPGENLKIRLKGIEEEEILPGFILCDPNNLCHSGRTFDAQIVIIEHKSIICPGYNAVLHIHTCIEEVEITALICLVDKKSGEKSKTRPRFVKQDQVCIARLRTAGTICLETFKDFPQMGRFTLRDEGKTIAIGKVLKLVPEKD
Chain of GSPT1 (Q96SW2 whole entry): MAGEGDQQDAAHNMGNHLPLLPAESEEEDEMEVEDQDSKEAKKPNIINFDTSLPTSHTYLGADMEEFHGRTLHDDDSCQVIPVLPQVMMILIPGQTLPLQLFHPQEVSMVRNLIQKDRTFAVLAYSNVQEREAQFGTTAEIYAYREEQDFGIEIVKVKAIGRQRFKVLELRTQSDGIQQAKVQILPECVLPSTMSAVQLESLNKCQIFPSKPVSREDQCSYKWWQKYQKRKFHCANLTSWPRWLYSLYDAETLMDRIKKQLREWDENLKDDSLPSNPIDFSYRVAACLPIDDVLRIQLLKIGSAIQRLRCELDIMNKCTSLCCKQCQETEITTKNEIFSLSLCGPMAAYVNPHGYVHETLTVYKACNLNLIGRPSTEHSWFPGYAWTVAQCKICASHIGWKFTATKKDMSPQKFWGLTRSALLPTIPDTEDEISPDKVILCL
Chain of GSPT1 (Q16531 whole entry partner): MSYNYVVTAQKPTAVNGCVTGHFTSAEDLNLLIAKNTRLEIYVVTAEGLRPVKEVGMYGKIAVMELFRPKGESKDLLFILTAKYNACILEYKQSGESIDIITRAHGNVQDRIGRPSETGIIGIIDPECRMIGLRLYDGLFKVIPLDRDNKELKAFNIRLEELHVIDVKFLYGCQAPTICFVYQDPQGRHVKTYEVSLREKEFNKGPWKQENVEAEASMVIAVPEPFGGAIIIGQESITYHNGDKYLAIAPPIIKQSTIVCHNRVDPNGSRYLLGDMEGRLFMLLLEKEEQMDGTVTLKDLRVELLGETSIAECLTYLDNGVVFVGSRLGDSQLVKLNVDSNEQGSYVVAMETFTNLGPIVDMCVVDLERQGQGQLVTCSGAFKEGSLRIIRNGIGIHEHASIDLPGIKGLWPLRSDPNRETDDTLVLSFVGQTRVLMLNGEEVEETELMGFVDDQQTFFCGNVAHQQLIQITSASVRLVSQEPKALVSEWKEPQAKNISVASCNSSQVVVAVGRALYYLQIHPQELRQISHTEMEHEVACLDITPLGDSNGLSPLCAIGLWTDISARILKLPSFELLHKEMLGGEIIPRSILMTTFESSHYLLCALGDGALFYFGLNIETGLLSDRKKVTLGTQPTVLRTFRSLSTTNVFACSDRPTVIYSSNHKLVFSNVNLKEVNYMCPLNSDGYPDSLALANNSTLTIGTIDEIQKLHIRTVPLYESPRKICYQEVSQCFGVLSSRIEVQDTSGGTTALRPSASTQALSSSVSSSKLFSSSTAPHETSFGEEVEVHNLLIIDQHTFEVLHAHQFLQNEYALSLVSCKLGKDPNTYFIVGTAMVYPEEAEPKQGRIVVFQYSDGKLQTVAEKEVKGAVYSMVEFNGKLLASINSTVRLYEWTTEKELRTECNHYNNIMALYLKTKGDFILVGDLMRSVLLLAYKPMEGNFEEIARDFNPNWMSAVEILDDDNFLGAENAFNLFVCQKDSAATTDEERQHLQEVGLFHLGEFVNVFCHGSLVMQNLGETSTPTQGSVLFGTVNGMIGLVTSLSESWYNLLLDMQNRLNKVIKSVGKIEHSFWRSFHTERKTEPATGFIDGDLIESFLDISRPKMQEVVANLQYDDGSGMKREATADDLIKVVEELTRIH

| Structure (SMILES) | DC50 [1] [µM] | IKZF2 % Degradation @ 1 μM [2] [%] |
| --- | --- | --- |
| O=C1CCC(N2Cc3c(ccc(O[C@H]4CCCC[C@@H]4N4CC(c5ccccc5)C4)c3F)C2=O)C(=O)N1 (single isomer, unassigned) [Compound 66] | > 30 | 74.8 |
| O=C1CCC(N2Cc3cc(O[C@H]4CCCC[C@@H]4N4CC(c5ccc(N6CCOCC6)cc5)C4)ccc3C2=O)C(=O)N1 (stereo partly drawn) [Compound 124, 3-(5-(((1S,2S)-2-(3-(4-morpholinophenyl)azetidin-1-yl)cyclohexyl)oxy)-1-oxoisoindolin-2-yl)piperidine-2,6-dione] | > 30 | 70.2 |
| O=C1CCC(N2Cc3cc(O[C@H]4CCCC[C@@H]4N4CC(c5ccccc5OC(F)(F)F)C4)ccc3C2=O)C(=O)N1 (stereo partly drawn) [Compound 36, 3-(1-oxo-5-(((1S,2S)-2-(3-(2-(trifluoromethoxy)phenyl)azetidin-1-yl)cyclohexyl)oxy)isoindolin-2-yl)piperidine-2,6-dione] | > 30 | 82.3 |
| O=C1CCC(N2Cc3cc(O[C@H]4CCCC[C@@H]4N4CC(c5cccc(F)c5)C4)ccc3C2=O)C(=O)N1 (stereo partly drawn) [Compound 111, 3-(5-(((1S,2S)-2-(3-(3-fluorophenyl)azetidin-1-yl)cyclohexyl)oxy)-1-oxoisoindolin-2-yl)piperidine-2,6-dione] | > 30 | 76.5 |
| O=C1CCC(N2Cc3cc(O[C@H]4CCCC[C@@H]4N4CC(c5ccc(O)cc5)C4)ccc3C2=O)C(=O)N1 (stereo partly drawn) [Compound 132, 3-(5-(((1S,2S)-2-(3-(4-hydroxyphenyl)azetidin-1-yl)cyclohexyl)oxy)-1-oxoisoindolin-2-yl)piperidine-2,6-dione] | > 30 | 77.2 |
| O=C1CCC(N2Cc3cc(O[C@H]4CCCCC[C@@H]4N4CC(c5ccccc5)C4)ccc3C2=O)C(=O)N1 (stereo partly drawn) [Compound 131, 3-(1-oxo-5-(((1S,2S)-2-(3-phenylazetidin-1-yl)cycloheptyl)oxy)isoindolin-2-yl)piperidine-2,6-dione] | > 30 | 92.3 |
| O=C1CCC(N2Cc3c(ccc(O[C@H]4CCCC[C@@H]4N4CC(c5ccccc5)C4)c3F)C2=O)C(=O)N1 (single isomer, unassigned) [Compound 65] | > 30 | 75.1 |

The next lines start with results.

| DC50 [1] [µM] | Structure (SMILES) | IKZF2 % Degradation @ 1 μM [2] [%] |
| --- | --- | --- |
| > 30 | O=C1CCC(N2Cc3cc(O[C@H]4CCCC[C@@H]4N4CC(c5ccccc5C(F)(F)F)C4)ccc3C2=O)C(=O)N1 (stereo partly drawn) [Compound 129, 3-(1-oxo-5-(((1S,2S)-2-(3-(2-(trifluoromethyl)phenyl)azetidin-1-yl)cyclohexyl)oxy)isoindolin-2-yl)piperidine-2,6-dione] | 83.8 |
| > 30 | O=C1CCC(N2Cc3cc(O[C@H]4CCCC[C@@H]4N4CC(c5cccc(F)c5F)C4)ccc3C2=O)C(=O)N1 (stereo partly drawn) [Compound 64, 3-(5-(((1S,2S)-2-(3-(2,3-difluorophenyl)azetidin-1-yl)cyclohexyl)oxy)-1-oxoisoindolin-2-yl)piperidine-2,6-dione] | 76.3 |
| > 30 | N#Cc1cc(Cl)ccc1C1CN([C@@H]2CCCC[C@@H]2Oc2ccc3c(c2)CN(C2CCC(=O)NC2=O)C3=O)C1 (mixture of isomers) [Compound 100, Rac-5-chloro-2-(1-((cis)-2-((2-(2,6-dioxopiperidin-3-yl)-1-oxoisoindolin-5-yl)oxy)cyclohexyl)azetidin-3-yl)benzonitrile] | <15 |
| > 30 | O=C1CCC(N2Cc3cc(O[C@H]4CCCC[C@@H]4N4CC(c5ccccc5O)C4)ccc3C2=O)C(=O)N1 (stereo partly drawn) [Compound 133, 3-(5-(((1S,2S)-2-(3-(2-hydroxyphenyl)azetidin-1-yl)cyclohexyl)oxy)-1-oxoisoindolin-2-1)piperidine-2,6-dione] | 56.4 |
| > 30 | O=C1CCC(N2Cc3cc(O[C@H]4CCCC[C@@H]4N4CC(c5cccc(O)c5)C4)ccc3C2=O)C(=O)N1 (stereo partly drawn) [Compound 134, 3-(5-(((1S,2S)-2-(3-(3-hydroxyphenyl)azetidin-1-yl)cyclohexyl)oxy)-1-oxoisoindolin-2-yl)piperidine-2,6-dione] | 75 |
| > 30 | O=C1CCC(N2Cc3cc(O[C@H]4CCCC[C@@H]4N4CC(c5cccc(OC(F)(F)F)c5)C4)ccc3C2=O)C(=O)N1 (stereo partly drawn) [Compound 35, 3-(1-oxo-5-(((1S,2S)-2-(3-(3-(trifluoromethoxy)phenyl)azetidin-1-yl)cyclohexyl)oxy)isoindolin-2-yl)piperidine-2,6-dione] | 84.6 |
| > 30 | O=C1CC[C@@H](N2Cc3cc(O[C@H]4CCCC[C@@H]4N4CC(c5ccccc5)C4)ccc3C2=O)C(=O)N1 [Compound 125, (R)-3-(1-oxo-5-(((1S,2S)-2-(3-phenylazetidin-1-yl)cyclohexyl)oxy)isoindolin-2-yl)piperidine-2,6-dione] | 83.2 |
| > 30 | O=C(O)CC(O)(CC(=O)O)C(=O)O.O=C1CCC(N2Cc3cc(O[C@H]4CCCC[C@@H]4N4CC(c5ccccc5)C4)ccc3C2=O)C(=O)N1 (stereo partly drawn) [Compound 130, 3-(1-oxo-5-(((1S,2S)-2-(3-phenylazetidin-1-yl)cyclohexyl)oxy)isoindolin-2-yl)piperidine-2,6-dione 2-hydroxypropane-1,2,3-tricarboxylate] | 84.8 |
| > 30 | O=C1CCC(N2Cc3cc(O[C@H]4CCCC[C@@H]4N4CC(c5ccccc5)C4)c(F)cc3C2=O)C(=O)N1 (single isomer, unassigned) [Compound 52] | 90.5 |
| > 30 | O=C1CCC(N2Cc3cc(O[C@H]4CCCC[C@@H]4N4CC(c5ccc(F)cc5)C4)ccc3C2=O)C(=O)N1 (single isomer, unassigned) [Compound 50] | 73.6 |

Source: patent publication US20240246935A1 (Plexium, Inc., priority 2021, published 2024)
